This note sets out measurements from BindingDB's records for PubMed 37487305 (Zhengzhou University).

The assay addresses Histone deacetylase 1 (Homo sapiens, UniProt Q13547). In words: Inhibition of HDAC1 (unknown origin) by fluorescence based microplate reader assay.

Histone deacetylase 1, sequence (Q13547 whole entry): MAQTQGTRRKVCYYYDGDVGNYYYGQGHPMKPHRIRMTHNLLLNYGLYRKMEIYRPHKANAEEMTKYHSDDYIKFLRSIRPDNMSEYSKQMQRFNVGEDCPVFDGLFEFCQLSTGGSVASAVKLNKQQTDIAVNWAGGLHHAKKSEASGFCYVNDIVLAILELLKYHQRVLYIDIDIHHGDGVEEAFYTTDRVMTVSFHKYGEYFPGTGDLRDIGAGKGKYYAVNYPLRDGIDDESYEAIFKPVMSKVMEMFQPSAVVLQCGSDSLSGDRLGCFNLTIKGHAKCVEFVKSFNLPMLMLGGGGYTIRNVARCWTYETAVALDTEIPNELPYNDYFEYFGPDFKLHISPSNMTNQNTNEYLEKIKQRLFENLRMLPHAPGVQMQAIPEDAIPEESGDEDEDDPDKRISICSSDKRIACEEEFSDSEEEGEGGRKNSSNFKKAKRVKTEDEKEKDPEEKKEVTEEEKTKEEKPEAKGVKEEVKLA

Usually IC50 stands for the point on the concentration scale where inhibition reaches its midpoint. A high value points to a need for much substance. In turn, `CN1c2ccccc2C(=O)N2[C@H](C(=O)Nc3ccc(C(=O)Nc4ccccc4N)cc3)Cc3c([nH]c4ccccc34)[C@@H]12` showed an IC50 of 160 nM.
